Measurements taken from patent US6146853A, “Cyclic depsipeptide PF 1022G” (Meiji Seika Kaisha Ltd., priority 1996, dated 2000).

What was measured:
[1] = Anthelmintic activities (general statement); conditions: no parasite or test named
[2] = Solubilities (physico-chemical properties); format: physicochemical

With `CC(C)C[C@H]1C(=O)O[C@H](C)C(=O)N(C)[C@@H](CC(C)C)C(=O)O[C@H](C)C(=O)N(C)[C@@H](CC(C)C)C(=O)O[C@H](C)C(=O)N(C)[C@@H](CC(C)C)C(=O)O[C@H](C)C(=O)N1C` [PF 1022F substance] as the compound, how does the anthelmintic activities [1] read?
Its anthelmintic activities is “having anthelmintic activities”.

What about the “Solubilities: soluble in” value ([2]; chloroform, acetone, ethyl acetate, methanol and dimethylsulfoxide) of the same compound?
The value was “Soluble”.

What about the “Solubilities: insoluble in” value ([2]; water and n-hexane) of the same compound?
Its value is “Insoluble”.

What about the solubility in water ([2]; water, statement in the recovery description) of the same compound?
Its solubility in water is “insoluble in water”.
